# From patent US10947271B2, “Antibacterial agents” (THE UNIVERSITY OF QUEENSLAND, priority 2014, dated 2021)
# How the values were obtained:
# Assay type in all cases: cell-based
# Conditions in all cases: 24 h incubation, visual reading
# [1] = system: Staphylococcus aureus MRSA ATCC 43300; assay: MIC assay, S. aureus MRSA ATCC 43300
# In short: (§1)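 MHB broth microdilution, twofold series, compounds 8–0.003 μg/ml; mid-log inoculum 5×10e5 CFU/mL; 37° C, 24 h; MIC read visually as lowest concentration without growth.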
# [2] = system: Streptococcus pneumoniae MDR ATCC 700677; assay: MIC assay, S. pneumoniae MDR ATCC 700677
# In short: as §1
# [3] = system: Enterococcus faecium MDR Van A ATCC 51559; assay: MIC assay, E. faecium MDR Van A ATCC 51559
# In short: as §1
Minimum Inhibitory Concentration (MIC) Staph. aureus ATCC43300 [1],Minimum Inhibitory Concentration (MIC) S. pneumoniae ATCC 700677 [2],Minimum Inhibitory Concentration (MIC) E. faecium ATCC51559 [3],Compound
xxx (xxx = 0.1-<1),xx (xx = 1-4),x (x = >4),CCCCCCCCC(=O)NC(CCCC[N+](C)(C)C)C(=O)NCCCNC(=O)C1NC(=O)C2NC(=O)C(NC(=O)C3NC(=O)C(CC(N)=O)NC(=O)C(NC(=O)C(CC(C)C)NC)C(O)c4ccc(c(Cl)c4)Oc4cc3cc(c4OC3OC(CO)C(O)C(O)C3OC3CC(C)(N)C(O)C(C)O3)Oc3ccc(cc3Cl)C2O)c2ccc(O)c(c2)-c2c(O)cc(O)cc21 (stereo not drawn) [MCC_007388]
xxxx (xxxx = 0.01-<0.1),xxx (xxx = 0.1-<1),x (x = >4),CNC(CC(C)C)C(=O)NC1C(=O)NC(CC(N)=O)C(=O)NC2C(=O)NC3C(=O)NC(C(=O)NC(C(=O)NCCCNC(=O)C(CCCCN)NC(=O)c4ccc(C(F)(F)F)cc4)c4cc(O)cc(O)c4-c4cc3ccc4O)C(O)c3ccc(c(Cl)c3)Oc3cc2cc(c3OC2OC(CO)C(O)C(O)C2OC2CC(C)(N)C(O)C(C)O2)Oc2ccc(cc2Cl)C1O (stereo not drawn) [MCC_007408]
xx (xx = 1-4),x (x = >4),x (x = >4),CN[C@H](CC(C)C)C(=O)N[C@H]1C(=O)N[C@@H](CC(N)=O)C(=O)N[C@H]2C(=O)N[C@H]3C(=O)N[C@H](C(=O)N[C@H](C(=O)NCCCC[C@H](NC(=O)[C@H](CCCCN(C)C)NC(=O)c4ccc(Cl)cc4)C(=O)O)c4cc(O)cc(O)c4-c4cc3ccc4O)[C@H](O)c3ccc(c(Cl)c3)Oc3cc2cc(c3O[C@@H]2O[C@H](CO)[C@@H](O)[C@H](O)[C@H]2O[C@H]2C[C@](C)(N)[C@H](O)[C@H](C)O2)Oc2ccc(cc2Cl)[C@H]1O [MCC_007219]

# Second part, the compound before the results:
Compound,Minimum Inhibitory Concentration (MIC) Staph. aureus ATCC43300 [1],Minimum Inhibitory Concentration (MIC) S. pneumoniae ATCC 700677 [2],Minimum Inhibitory Concentration (MIC) E. faecium ATCC51559 [3]
CCCCCCCCCCC(=O)N[C@@H](CCCCN)C(=O)N[C@@H](CCCCN)C(=O)N[C@@H](CCCCNC(=O)[C@H]1NC(=O)[C@H]2NC(=O)[C@H](NC(=O)[C@@H]3NC(=O)[C@H](CC(N)=O)NC(=O)[C@H](NC(=O)[C@@H](CC(C)C)NC)[C@H](O)c4ccc(c(Cl)c4)Oc4cc3cc(c4O[C@@H]3O[C@H](CO)[C@@H](O)[C@H](O)[C@H]3O[C@H]3C[C@](C)(N)[C@H](O)[C@H](C)O3)Oc3ccc(cc3Cl)[C@H]2O)c2ccc(O)c(c2)-c2c(O)cc(O)cc21)C(=O)NC [MCC_000292],xxxx (xxxx = 0.01-<0.1),xxxx (xxxx = 0.01-<0.1),xx (xx = 1-4)
CCCCCCCCCCCCC(=O)N[C@@H](CCCCN)C(=O)N[C@@H](CCCCN)C(=O)N[C@@H](CCCCNC(=O)[C@H]1NC(=O)[C@H]2NC(=O)[C@H](NC(=O)[C@@H]3NC(=O)[C@H](CC(N)=O)NC(=O)[C@H](NC(=O)[C@@H](CC(C)C)NC)[C@H](O)c4ccc(c(Cl)c4)Oc4cc3cc(c4O[C@@H]3O[C@H](CO)[C@@H](O)[C@H](O)[C@H]3O[C@H]3C[C@](C)(N)[C@H](O)[C@H](C)O3)Oc3ccc(cc3Cl)[C@H]2O)c2ccc(O)c(c2)-c2c(O)cc(O)cc21)C(=O)O [MCC_000349],xxxxx (xxxxx = <0.01),xxxxx (xxxxx = <0.01),xxx (xxx = 0.1-<1)
CCCCCCCC(=O)N[C@@H](CCCCN)C(=O)N[C@@H](CCCCN)C(=O)N[C@@H](CCCCNC(=O)[C@H]1NC(=O)[C@H]2NC(=O)[C@H](NC(=O)[C@@H]3NC(=O)[C@H](CC(N)=O)NC(=O)[C@H](NC(=O)[C@@H](CC(C)C)NC)[C@H](O)c4ccc(c(Cl)c4)Oc4cc3cc(c4O[C@@H]3O[C@H](CO)[C@@H](O)[C@H](O)[C@H]3O[C@H]3C[C@](C)(N)[C@H](O)[C@H](C)O3)Oc3ccc(cc3Cl)[C@H]2O)c2ccc(O)c(c2)-c2c(O)cc(O)cc21)C(=O)O [MCC_005225],xx (xx = 1-4),xx (xx = 1-4),x (x = >4)
CCCCCCCCCCCCC(=O)N[C@@H](CCCCN)C(=O)N[C@@H](CCCCN)C(=O)N[C@@H](CCCCNC(=O)[C@H]1NC(=O)[C@H]2NC(=O)[C@H](NC(=O)[C@@H]3NC(=O)[C@H](CC(N)=O)NC(=O)[C@H](NC(=O)[C@@H](CC(C)C)NC)[C@H](O)c4ccc(c(Cl)c4)Oc4cc3cc(c4O[C@@H]3O[C@H](CO)[C@@H](O)[C@H](O)[C@H]3O[C@H]3C[C@](C)(N)[C@H](O)[C@H](C)O3)Oc3ccc(cc3Cl)[C@H]2O)c2ccc(O)c(c2)-c2c(O)cc(O)cc21)C(N)=O [MCC_000975],xxxxx (xxxxx = <0.01),xxxxx (xxxxx = <0.01),xxx (xxx = 0.1-<1)
CNC(=O)C(CCCCNC(=O)C1NC(=O)C2NC(=O)C(NC(=O)C3NC(=O)C(CC(N)=O)NC(=O)C(NC(=O)C(CC(C)C)NC)C(O)c4ccc(c(Cl)c4)Oc4cc3cc(c4OC3OC(CO)C(O)C(O)C3OC3CC(C)(N)C(O)C(C)O3)Oc3ccc(cc3Cl)C2O)c2ccc(O)c(c2)-c2c(O)cc(O)cc21)NC(=O)C(CCCCN)NC(=O)C(CCCCN)NC(=O)c1ccc(OCc2ccccc2)cc1 (stereo not drawn) [MCC_000518],xxx (xxx = 0.1-<1),xxx (xxx = 0.1-<1),x (x = >4)
CCCCCCCCCCCCCC(=O)N[C@@H](CCCCN)C(=O)N[C@@H](CCCCN)C(=O)N[C@@H](CCCCNC(=O)[C@H]1NC(=O)[C@H]2NC(=O)[C@H](NC(=O)[C@@H]3NC(=O)[C@H](CC(N)=O)NC(=O)[C@H](NC(=O)[C@@H](CC(C)C)NC)[C@H](O)c4ccc(c(Cl)c4)Oc4cc3cc(c4O[C@@H]3O[C@H](CO)[C@@H](O)[C@H](O)[C@H]3O[C@H]3C[C@](C)(N)[C@H](O)[C@H](C)O3)Oc3ccc(cc3Cl)[C@H]2O)c2ccc(O)c(c2)-c2c(O)cc(O)cc21)C(=O)NC [MCC_000224],xxxxx (xxxxx = <0.01),xxxxx (xxxxx = <0.01),xxx (xxx = 0.1-<1)
CCCCCCCCCCCCCC(=O)N[C@@H](CCCCN)C(=O)N[C@@H](CCCCN)C(=O)N[C@@H](Cc1cn(CCCNC(=O)[C@H]2NC(=O)[C@H]3NC(=O)[C@H](NC(=O)[C@@H]4NC(=O)[C@H](CC(N)=O)NC(=O)[C@H](NC(=O)[C@@H](CC(C)C)NC)[C@H](O)c5ccc(c(Cl)c5)Oc5cc4cc(c5O[C@@H]4O[C@H](CO)[C@@H](O)[C@H](O)[C@H]4O[C@H]4C[C@](C)(N)[C@H](O)[C@H](C)O4)Oc4ccc(cc4Cl)[C@H]3O)c3ccc(O)c(c3)-c3c(O)cc(O)cc32)nn1)C(N)=O [MCC_000979],xxxxx (xxxxx = <0.01),xxxxx (xxxxx = <0.01),xxx (xxx = 0.1-<1)
CCCCCCCCCN1CCC(C(=O)N[C@@H](CCCCN)C(=O)N[C@@H](CCCCN)C(=O)NCCCNC(=O)[C@H]2NC(=O)[C@H]3NC(=O)[C@H](NC(=O)[C@@H]4NC(=O)[C@H](CC(N)=O)NC(=O)[C@H](NC(=O)[C@@H](CC(C)C)NC)[C@H](O)c5ccc(c(Cl)c5)Oc5cc4cc(c5O[C@@H]4O[C@H](CO)[C@@H](O)[C@H](O)[C@H]4O[C@H]4C[C@](C)(N)[C@H](O)[C@H](C)O4)Oc4ccc(cc4Cl)[C@H]3O)c3ccc(O)c(c3)-c3c(O)cc(O)cc32)CC1 [MCC_000937],xxxx (xxxx = 0.01-<0.1),xxxx (xxxx = 0.01-<0.1),xx (xx = 1-4)
